Assay results published in patent US10398785B2, “Pharmaceutical compositions containing taxane-cyclodextrin complexes, method of making and methods of use” (MERIDIAN LAB, priority 2015, dated 2019).

Test: Accelerated aging stability study at 40° C. for eleven days (impurities by HPLC, USP35)
Assay type: physicochemical
Details: in the liquid pharmaceutical composition throughout 11 days of accelerated aging at 40° C.
Protocol: A liquid pharmaceutical composition as described above, comprising ˜10 mg/mL docetaxel was diluted and subjected to accelerated aging at 40° C. for eleven days. The levels of impurities as specified by USP35 (United States Pharmacopeia 35) for taxane compositions were analyzed by HPLC at regular intervals. Stability was tested at 6 hours on day 0. Impurity levels in the liquid pharmaceutical compositions were compared to the allowable level according to the USP35 standard.

Question: For `CC(=O)O[C@@]12CO[C@@H]1C[C@H](O)[C@@]1(C)C(=O)[C@H](O)C3=C(C)[C@@H](OC(=O)[C@H](O)[C@@H](NC(=O)OC(C)(C)C)c4ccccc4)C[C@@](O)([C@@H](OC(=O)c4ccccc4)[C@H]21)C3(C)C` [docetaxel], which Concentration of docetaxel is on record?
Answer: The Concentration of docetaxel was 9520 µg/mL.
